This passage reports MIC, Antibacterial activity and Antibacterial effects results from patent US20080262082A1, “COMPOSITION CONTAINING S-(-)-TULIPALIN B OR ACETYLATED-S-(-)-TULIPALIN B” (BIO SPECTRUM, INC., priority 2007, published 2008).

Common to all, as to format: cell-based
In experiment [1] the test system is Salmonella enteritidis KCTC 12400. Nature of the experiment: MIC by broth dilution method. As to conditions: S. enteritidis, 37° C., 24 hours. On the technique in general: Dilution methods test growth across graded concentrations, often in twofold steps.
For experiment [2], the system named is Staphylococcus aureus KCTC 1916. The experiment in a line: MIC by broth dilution method. The conditions noted are these: S. aureus, 37° C., 24 hours.
The subject of experiment [3] is Salmonella typhimurium KCTC 2514. The experiment in a line: MIC by broth dilution method. The conditions noted are these: S. typhimurium, 37° C., 24 hours.
For experiment [4], the system named is Vibrio parahaemolyticus KCTC 27. The experiment in a line: MIC by broth dilution method. The conditions noted are these: V. parahaemolyticus, 37° C., 24 hours.
In experiment [5] the test system is Escherichia coli KCTC 1039. The experiment in a line: MIC by broth dilution method. The conditions noted are these: E. coli, 37° C., 24 hours.
For experiment [6], the system named is 8 anaerobic bacterial species. Nature of the experiment: Agar diffusion antibacterial test, overall (anaerobic). As to conditions: anaerobic bacteria; concentration of 1.0%. In general terms: In agar diffusion tests the substance spreads into inoculated agar from a disc or well.
For experiment [7], the system named is 18 species of pathogenic bacteria (aerobic). The experiment in a line: Agar diffusion antibacterial test, overall (aerobic). As to conditions: all kinds of bacteria (aerobic); treatment concentration of 1.0%.

For `O=C1C(N(CO)C(=O)NCO)N(CO)C(=O)N1CO` (stereo not drawn) [Germall II], the MIC is given as 0.01% in experiment [1]; 0.03% in experiment [2]; 0.02% in experiment [3]; 0.02% in experiment [4]; 0.005% in experiment [5].
Consider `C=C1C(=O)OC[C@@H]1O` [R-(+)-tulipalin B, (4R)-4-hydroxy-3-methylene-oxolan-2-one, reference compound], for which, in experiment [6], the Antibacterial activity result was “no antibacterial activity”. In addition, the Antibacterial effects result in experiment [7] is listed as “no antibacterial effects”.
Consider `C/C=C/C=C/C(=O)O` [Sorbic acid, reference compound], for which the MIC was found to be 0.01% in experiment [1]; 0.04% in experiment [2]; 0.03% in experiment [3]; 0.03% in experiment [4]; 0.01% in experiment [5].
